Entries after “also recorded” stand apart in the source; their conditions may differ. Like-named read-outs stand apart in the source and are kept apart here.
Legend:
SARS-CoV-2 WA1/2020 = assay: microbe, parasite or virus in culture; format: cell-based
5-HT2B = 5-HT2B (Homo sapiens, UniProt P41595); assay: CEREP panel off-target: 5-HT2B; settings: high concentrations
hERG channel = hERG channel (Homo sapiens, UniProt Q12809); assay: hERG channel inhibition
[1] = system: adenovirus serotype 5 strain adenoid 65; assay: microbe, parasite or virus in culture; format: cell-based; settings: unidentified adenovirus, A549, read-out: PAV-431 EC50
RSV A-2 virus = assay: RSV cotton rat study; format: in vivo; settings: cotton rats, 2 mg kg^−1 IP twice daily, days −1 to 4, plaque assay
Method: Female cotton rats, approximately 5 weeks of age, were obtained from Envigo (formerly Harlan), ear-tagged for identification purposes, and allowed to acclimate for >1 week prior to study start. Animals were housed individually. Vehicle or drug (2 mg kg^−1) was administered by an intraperitoneal route twice daily on study days −1 through day 4. On day 0, animals were infected with 1 × 10^5 PFU of RSV A-2 virus originally obtained from ATCC (VR-1540), administered in a 50 µl volume by an intranasal route approximately 2 h after the morning treatment dose. Back titration of the viral stock and diluted inoculum was performed to confirm the titre of the RSV stock used for infection. All inoculations were performed while the animals were under the influence of inhalant anaesthesia. All animals were euthanized on day 5 and the lungs were processed for determination of RSV titres by plaque assay.

Nipah virus rNiV-ZsG = assay: microbe, parasite or virus in culture; format: cell-based
[2] = Pharmacokinetics, tissue uptake and safety in rats; settings: 5 mg kg^−1 IP
p62/SQSTM1 = format: cell-based
HRV-16 = assay: HRV assay in H1-HeLa cells by TCID50; format: cell-based, human rhinovirus 16; settings: Rhinovirus A
bovine coronavirus = assay: microbe, parasite or virus in culture; format: cell-based; settings: Betacoronavirus 1, read-out: PAV-431 EC50
FLUV A/WSN/33 = assay: microbe, parasite or virus in culture; format: cell-based, influenza A/WSN/33; settings: Influenza A virus, MDCK; for IC50: read-out: IC50 (figure 2a)
14-3-3 zeta (YWHAZ) = 14-3-3 zeta (YWHAZ) (Homo sapiens, UniProt P63104); format: binding
rabies virus CVS-11 = assay: microbe, parasite or virus in culture; format: cell-based
[3] = rat, in vivo
[4] = system: swine influenza virus SIC/SK WT; assay: microbe, parasite or virus in culture; format: cell-based; settings: MDCK, read-out: PAV-431 EC50
in vivo = settings: rat
[5] = system: members of Orthomyxoviridae, Coronaviridae, Paramyxoviridae, Adenoviridae, Herpesviridae and Picornaviridae; assay: microbe, parasite or virus in culture; format: cell-based; settings: Orthoherpesviridae, read-out: EC50 across six respiratory viral families
[6] = system: human cytomegalovirus strain AD69; assay: microbe, parasite or virus in culture; format: cell-based; settings: Human betaherpesvirus 5, H1-HeLa, read-out: PAV-431 EC50
[7] = system: respiratory synctial virus straine A-2; assay: microbe, parasite or virus in culture; format: cell-based; settings: human respiratory syncytial virus, HEp-2, read-out: PAV-431 EC50
BoCoV BRCV-OK-0514-2 = assay: microbe, parasite or virus in culture; format: cell-based, bovine coronavirus; settings: Betacoronavirus 1
[8] = system: porcine epidemic diarrhoea virus (PEDV); assay: PEDV pig study; format: in vivo; settings: newborn pigs infected with PEDV, 4 mg kg^−1 intramuscular, relative to control
Method: 18 litters comprised of 91 individuals of newborn (2–4 days old) crossbred pigs weighing 3 kg were randomized to control (vehicle) or treatment groups. Animals were infected with 1 × 10^5 PFU of PEDV administered orally. Vehicle or drug was administered intramuscular at 4 mg kg^−1 immediately after challenge and again 24 h post-infection. Compound efficacy was determined by survivability. Endpoint of study was 6 days post-infection.

MHV-68 = assay: microbe, parasite or virus in culture; settings: Murine herpesvirus, BHK-21
[9] = system: FLUV nucleoprotein capsid assembly; format: biochemical, influenza (FLUV)
[10] = HRV16, HRV-16, MOI = 5, H1-HeLa cells, TCID50, read-out: EC50
[11] = read-out: EC50 against infectious FLUV

Chain of 5-HT2B (P41595 whole entry, species assumed): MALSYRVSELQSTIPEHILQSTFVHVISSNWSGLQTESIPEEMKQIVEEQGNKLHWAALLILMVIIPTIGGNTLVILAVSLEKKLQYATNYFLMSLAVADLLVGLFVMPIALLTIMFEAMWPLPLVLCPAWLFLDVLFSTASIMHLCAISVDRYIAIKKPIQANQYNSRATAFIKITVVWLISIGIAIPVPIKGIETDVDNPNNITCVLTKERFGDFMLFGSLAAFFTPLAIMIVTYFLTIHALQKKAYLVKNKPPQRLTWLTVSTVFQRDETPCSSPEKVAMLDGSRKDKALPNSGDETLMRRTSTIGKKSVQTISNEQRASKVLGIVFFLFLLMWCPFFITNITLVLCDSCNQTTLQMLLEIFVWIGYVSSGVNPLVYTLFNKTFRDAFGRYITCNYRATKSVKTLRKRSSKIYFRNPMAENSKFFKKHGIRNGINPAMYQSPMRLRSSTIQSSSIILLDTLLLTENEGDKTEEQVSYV
Chain of hERG channel (Q12809 whole entry): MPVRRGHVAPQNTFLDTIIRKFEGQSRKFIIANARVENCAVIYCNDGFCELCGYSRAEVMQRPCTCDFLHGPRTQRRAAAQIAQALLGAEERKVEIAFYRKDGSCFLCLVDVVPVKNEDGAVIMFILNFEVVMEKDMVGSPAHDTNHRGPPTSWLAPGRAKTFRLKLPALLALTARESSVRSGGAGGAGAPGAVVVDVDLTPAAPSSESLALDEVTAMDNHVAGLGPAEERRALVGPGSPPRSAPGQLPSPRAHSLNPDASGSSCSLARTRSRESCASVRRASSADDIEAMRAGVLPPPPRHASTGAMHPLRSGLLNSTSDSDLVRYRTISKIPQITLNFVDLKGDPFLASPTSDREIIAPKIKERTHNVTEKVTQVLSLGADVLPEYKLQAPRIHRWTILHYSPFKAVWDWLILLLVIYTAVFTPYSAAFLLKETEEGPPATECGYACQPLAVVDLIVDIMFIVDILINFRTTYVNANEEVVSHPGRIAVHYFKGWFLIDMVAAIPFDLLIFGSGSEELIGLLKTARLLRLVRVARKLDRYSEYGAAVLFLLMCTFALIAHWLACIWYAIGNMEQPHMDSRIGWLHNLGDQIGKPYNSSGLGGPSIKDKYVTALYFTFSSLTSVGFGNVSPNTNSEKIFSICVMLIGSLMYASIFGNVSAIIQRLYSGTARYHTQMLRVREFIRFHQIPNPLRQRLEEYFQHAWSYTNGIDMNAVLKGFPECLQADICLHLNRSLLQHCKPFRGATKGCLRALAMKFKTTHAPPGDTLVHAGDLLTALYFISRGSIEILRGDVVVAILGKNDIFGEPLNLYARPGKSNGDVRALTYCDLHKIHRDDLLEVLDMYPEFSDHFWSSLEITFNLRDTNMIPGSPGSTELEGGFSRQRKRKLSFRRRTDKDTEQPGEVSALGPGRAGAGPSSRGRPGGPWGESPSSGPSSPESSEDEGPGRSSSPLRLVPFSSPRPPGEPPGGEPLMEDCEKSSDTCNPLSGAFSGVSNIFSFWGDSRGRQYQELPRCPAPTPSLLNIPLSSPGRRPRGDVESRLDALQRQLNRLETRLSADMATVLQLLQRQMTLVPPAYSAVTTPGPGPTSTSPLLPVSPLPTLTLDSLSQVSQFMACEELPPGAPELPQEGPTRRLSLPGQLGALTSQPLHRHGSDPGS
Chain of 14-3-3 zeta (YWHAZ) (P63104 whole entry): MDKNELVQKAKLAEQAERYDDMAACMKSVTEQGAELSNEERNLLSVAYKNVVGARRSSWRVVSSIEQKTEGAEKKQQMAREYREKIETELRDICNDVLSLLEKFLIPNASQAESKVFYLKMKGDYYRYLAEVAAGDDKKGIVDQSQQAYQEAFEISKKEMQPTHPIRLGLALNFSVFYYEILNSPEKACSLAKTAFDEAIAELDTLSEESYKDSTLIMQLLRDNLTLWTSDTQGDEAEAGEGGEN

What does the source list for `COc1c(CNC(=O)c2cc(C3CC3)nn2C)cccc1OC(F)(F)F` [PAV-431]?
efficacy against SARS-CoV-2 WA 1/2020 (SARS-CoV-2 WA1/2020): significant efficacy; EC50 (SARS-CoV-2 WA1/2020; Severe acute respiratory syndrome coronavirus 2, Vero C1008, read-out: PAV-431 EC50): 100 nM; off-target effect at 5-HT2B (5-HT2B): potential off-target effects at high concentrations could be relevant; hERG channel inhibition (hERG channel): negative for hERG channel inhibition; EC50 [1]: < 100 nM; RSV titre in lungs relative to vehicle (RSV A-2 virus): significant drop in viral titre; also recorded: small but statistically significant drop in RSV titre; activity against Nipah virus (Nipah virus rNiV-ZsG): comparably potent; EC50 (Nipah virus rNiV-ZsG; Henipavirus nipahense, read-out: PAV-431 EC50): ≤ 50 nM; safety of dose [2]: found to be safe; amount of p62 in eluate (p62/SQSTM1): restored with PAV-431 treatment; EC50 (HRV-16; HRV16, H1-HeLa, read-out: PAV-431 EC50): < 20 nM; EC50 (bovine coronavirus): 50 nM; EC50 (FLUV A/WSN/33; read-out: PAV-431 EC50): 25 nM; 14-3-3 binding from PAV-104 resin flowthrough (14-3-3 zeta (YWHAZ)): a substantial amount of the 14-3-3 in the PAV-104 resin flowthrough bound to the PAV-431 resin; activity against rabies virus (rabies virus CVS-11): did not show significant activity against rabies virus; EC50 (rabies virus CVS-11; Rabies virus CVS-11, read-out: PAV-431 EC50): > 400 nM; clearance [3]: quick clearing tendency; distribution in brain [3]: good distribution in brain and lungs; distribution in lungs [3]: good distribution in brain and lungs; distribution in plasma [3]: good distribution in plasma; volume of distribution [3]: better volume of distribution than PAV-104; concentration in lungs ([3]; ip): 167 nM; concentration in plasma ([3]; ip): 108 nM; levels obtained, oral route ([3]; po): too low to analyse the PK properties; EC50 [4]: 25 nM; bioavailability (in vivo): 59%; EC50 [5]: ≤ 100 nM; EC50 [6]: 25 nM; EC50 [7]: < 25 nM

Which results are given for `COc1cccc(CNC(=O)c2cc(C(C)(C)C)nn2C)c1OC` [PAV-773]?
EC50 (BoCoV BRCV-OK-0514-2): < 1000 nM; likelihood of survival [8]: significantly increased the likelihood of survival; EC50 (HRV-16; [10]): < 1000 nM; EC50 (FLUV A/WSN/33): < 1000 nM; EC50 (FLUV A/WSN/33; [11]): 177 nM; IC50 (FLUV A/WSN/33): 176 nM; EC50 (MHV-68): < 1000 nM; assembly of FLUV nucleoprotein into a completed capsid [9]: blocked assembly of FLUV nucleoprotein into a completed capsid in a dose-dependent manner

Which results are given for `COc1cccc(CNC(=O)c2cc(C3CC3)nn2C)c1OC` [PAV-835]?
EC50 (BoCoV BRCV-OK-0514-2): < 1000 nM; likelihood of survival [8]: significantly increased the likelihood of survival; EC50 (HRV-16; [10]): < 1000 nM; EC50 (FLUV A/WSN/33): < 1000 nM; EC50 (FLUV A/WSN/33; [11]): 42 nM; IC50 (FLUV A/WSN/33): 14.8 nM; EC50 (MHV-68): < 1000 nM; assembly of FLUV nucleoprotein into a completed capsid [9]: blocked assembly of FLUV nucleoprotein into a completed capsid in a dose-dependent manner
